Values of other authors, collected in patent US20210251893A1, “Compositions and Methods for Treating Ocular Diseases” (Ocular Therapeutix, Inc., priority 2020, published 2021).

Columns and labels:
[1] = target: FP prostanoid receptor (Homo sapiens, UniProt P43088)
FP prostanoid receptor, sequence (P43088 whole entry): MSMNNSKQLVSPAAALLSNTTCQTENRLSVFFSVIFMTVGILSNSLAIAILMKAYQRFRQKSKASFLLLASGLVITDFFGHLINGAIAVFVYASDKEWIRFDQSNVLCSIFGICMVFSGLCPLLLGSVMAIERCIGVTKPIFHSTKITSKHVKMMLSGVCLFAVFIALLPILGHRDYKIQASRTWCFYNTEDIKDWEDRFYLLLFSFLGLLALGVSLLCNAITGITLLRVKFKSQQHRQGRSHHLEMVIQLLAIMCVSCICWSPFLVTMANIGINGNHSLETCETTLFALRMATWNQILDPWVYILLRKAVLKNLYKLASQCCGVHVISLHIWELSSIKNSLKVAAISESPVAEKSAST

CC(C)OC(=O)CCC/C=C\C[C@@H]1[C@@H](CC[C@@H](O)CCc2ccccc2)[C@H](O)C[C@@H]1O [Latanoprost]
Solubility in aqueous solutions: relatively low solubility

CC(C)OC(=O)CCC/C=C\C[C@@H]1[C@@H](/C=C/[C@@H](O)COc2cccc(C(F)(F)F)c2)[C@H](O)C[C@@H]1O [Travoprost]
Affinity for the prostaglandin FP receptor [1]: high affinity

O=C(O)CCC/C=C\C[C@@H]1[C@@H](/C=C/[C@@H](O)COc2cccc(C(F)(F)F)c2)[C@H](O)C[C@@H]1O [free acid of travoprost]
Potency and selectivity for the FP prostanoid receptor ([1]; compared to latanoprost): higher potency and greater selectivity
